The structures appear in SMILES notation. *1 amine or outer side, *2 acyl side, *3 side chain or, on linkers, in order; H or OH if unused. Where a SMILES comes first, the peptide text is derived from it. Bridges are numbered along the chain shown (N, C = ends). [ ]: non-standard residue; d: D form. The star is where a group is joined. ξ: configuration not given here. X17 = CC(C)C[C@@H](C(=O)[*:2])C(C)C(=O)CCCN(C)[*:1]; Glu(NHSO2Me) = CS(=O)(=O)NC(=O)CC[C@H](N)C(=O)O; NMePhe(3-Cl) = CN[C@@H](Cc1cccc(Cl)c1)C(=O)O; ξGln(SO2Me) = CS(=O)(=O)NC(=O)CCC(N)C(=O)O; NMeF = CN[C@@H](Cc1ccccc1)C(=O)O; NMeGABA = CN(CCCC(=O)[*:2])[*:1]; NMeI = CC[C@H](C)[C@H](NC)C(=O)O; NMeL = CN[C@@H](CC(C)C)C(=O)O; NMeV = CN[C@H](C(=O)O)C(C)C; NMeAbu = CC[C@H](NC)C(=O)O; NMeA = CN[C@@H](C)C(=O)O; Piperidide = C1CCN(*)CC1; Me2NCH2CH2 = CN(C)CC*; NBuGly = CCCCNCC(=O)O; Isopentyl = CC(C)CC*; NPrGly = CCCNCC(=O)O; ξS = NC(CO)C(=O)O; Sar = CNCC(=O)O; tBu = CC(C)(C)*

The first series in a line: in vitro. The following applies: human, Caco-2, Caco-2.
Turning to `CC(C)C[C@@H]1NC(=O)[C@H](CC(C)C)N(C)C(=O)CCCN(C)C(=O)C[C@@H](C(=O)N2CCCCC2)NC(=O)[C@H](CC(C)C)N(C)C(=O)[C@H](CC(C)C)N(C)C(=O)[C@H]([C@@H](C)O)NC(=O)[C@H](CC(C)C)N(C)C(=O)[C@H](COCCN(C)C)NC(=O)[C@H](Cc2ccccc2)N(C)C(=O)[C@H](Cc2ccccc2)N(C)C1=O` [pd54] ([NMeGABA][NMeL]L[NMeF][NMeF]S(Me2NCH2CH2)[NMeL]T[NMeL][NMeL]D-Piperidide; lactam N-11), the Papp (usually a coefficient for how fast a substance crosses the barrier) worked out at 0.73 nm/s. Regarding `CCCCN1CC(=O)N(C)[C@@H](C(C)C)C(=O)N[C@H](C(=O)N2CCCCC2)CC(=O)N(C)[C@@H](C)C(=O)N[C@@H](COCCN(C)C)C(=O)N(C)[C@@H](CC(C)C)C(=O)N(C)[C@@H](Cc2ccccc2)C(=O)N[C@@H](CC(C)C)C(=O)N(C)[C@@H](Cc2ccccc2)C(=O)N(C)[C@@H](CC(C)C)C(=O)N[C@@H]([C@@H](C)O)C1=O` [pd56] ([NMeA]S(Me2NCH2CH2)[NMeL][NMeF]L[NMeF][NMeL]T[NBuGly][NMeV]D-Piperidide; lactam N-11), the Papp was found to be 1.2 nm/s. On the same count and under the same terms, to `CCCN1CC(=O)N(C)[C@@H](C(C)C)C(=O)N[C@H](C(=O)N2CCCCC2)CC(=O)N(C)[C@@H](C)C(=O)N[C@@H](CC(C)C)C(=O)N(C)[C@@H](CC(C)C)C(=O)N(C)[C@@H](Cc2ccccc2)C(=O)NC(COCCN(C)C)C(=O)N(C)[C@@H](Cc2ccccc2)C(=O)N(C)[C@@H](CC(C)C)C(=O)N[C@@H]([C@@H](C)O)C1=O` (stereo partly drawn) [pd57] ([NMeA]L[NMeL][NMeF][ξS](Me2NCH2CH2)[NMeF][NMeL]T[NPrGly][NMeV]D-Piperidide; lactam N-11) belongs 1.2 nm/s; to `CCCCN1CC(=O)N(C)[C@@H](Cc2ccccc2)C(=O)N[C@@H](COCCN(C)C)C(=O)N(C)[C@@H](CC(C)C)C(=O)N[C@@H]([C@@H](C)O)C(=O)N(C)CC(=O)N(C)[C@@H](Cc2ccccc2)C(=O)N(C)[C@@H](CC)C(=O)N[C@@H](COCCC(C)C)C(=O)N(C)[C@@H](CC(C)C)C(=O)N[C@H](C(=O)N2CCCCC2)CC1=O` [pd58] ([NBuGly][NMeF]S(Me2NCH2CH2)[NMeL]T[Sar][NMeF][NMeAbu]S(Isopentyl)[NMeL]D-Piperidide; lactam N-11), 0.21 nm/s; to `CCCCN1CC(=O)N(C)[C@@H](CC(C)C)C(=O)N[C@@H](CC(C)C)C(=O)N(C)[C@@H](Cc2ccccc2)C(=O)N(C)[C@@H](C(C)C)C(=O)N[C@H](C(=O)N2CCCCC2)CC(=O)N[C@H](CC(C)C)C(=O)N(C)[C@@H](Cc2cccc(Cl)c2)C(=O)N[C@@H](CCC(=O)NS(C)(=O)=O)C(=O)N(C)[C@@H](CC(C)C)C(=O)N[C@@H]([C@@H](C)O)C1=O` [pd59] ([dL][NMePhe(3-Cl)][Glu(NHSO2Me)][NMeL]T[NBuGly][NMeL]L[NMeF][NMeV]D-Piperidide; lactam N-11), < 0.088 nm/s. Same read-out and setting: to `CCCCN1CC(=O)N(C)[C@@H](CC(C)C)C(=O)N[C@@H](CCC(=O)NS(C)(=O)=O)C(=O)N(C)[C@@H](Cc2cccc(Cl)c2)C(=O)N(C)[C@@H](C(C)C)C(=O)N[C@H](C(=O)N2CCCCC2)CC(=O)N[C@H](CC(C)C)C(=O)N(C)[C@@H](Cc2cccc(Cl)c2)C(=O)N[C@@H](CC(C)C)C(=O)N(C)[C@@H](CC(C)C)C(=O)N[C@@H]([C@@H](C)O)C1=O` [pd60] ([dL][NMePhe(3-Cl)]L[NMeL]T[NBuGly][NMeL][Glu(NHSO2Me)][NMePhe(3-Cl)][NMeV]D-Piperidide; lactam N-11) belongs 0.1 nm/s; to `CCCCN1CC(=O)N(C)[C@@H](CC(C)C)C(=O)N[C@@H](CCC(=O)NS(C)(=O)=O)C(=O)N(C)[C@@H](Cc2cccc(Cl)c2)C(=O)N(C)[C@@H](C(C)C)C(=O)N[C@H](C(=O)N2CCCCC2)CC(=O)N[C@H](CC(C)C)C(=O)N(C)[C@@H](Cc2cccc(Cl)c2)C(=O)N[C@@H](CC(C)C)C(=O)N(C)[C@@H](CC)C(=O)N[C@@H]([C@@H](C)O)C1=O` [pd61] ([dL][NMePhe(3-Cl)]L[NMeAbu]T[NBuGly][NMeL][Glu(NHSO2Me)][NMePhe(3-Cl)][NMeV]D-Piperidide; lactam N-11), < 0.94 nm/s. As for `CCCCN1CC(=O)N(C)[C@@H](C(C)C)C(=O)N[C@H](C(=O)N2CCCCC2)CC(=O)N(C)[C@@H](CC(C)C)C(=O)NC(CCC(=O)NS(C)(=O)=O)C(=O)N(C)[C@@H](CC(C)C)C(=O)N(C)[C@@H](Cc2ccccc2)C(=O)N[C@@H](CC(C)C)C(=O)N(C)[C@@H](Cc2ccccc2)C(=O)N(C)[C@@H](CC(C)C)C(=O)N[C@@H]([C@@H](C)O)C1=O` (stereo partly drawn) [pd62] ([NMeL][ξGln(SO2Me)][NMeL][NMeF]L[NMeF][NMeL]T[NBuGly][NMeV]D-Piperidide; lactam N-11), the Papp is < 1.3 nm/s.

On to `CCCCN1CC(=O)N(C)[C@@H](C(C)C)C(=O)N[C@H](C(=O)N2CCCCC2)CC(=O)N(C)[C@@H](CC)C(=O)NC(CCC(=O)NS(C)(=O)=O)C(=O)N(C)[C@@H](CC(C)C)C(=O)N(C)[C@@H](Cc2cccc(Cl)c2)C(=O)N[C@@H](CC(C)C)C(=O)N(C)[C@@H](Cc2ccccc2)C(=O)N(C)[C@@H](CC(C)C)C(=O)N[C@@H]([C@@H](C)O)C1=O` (stereo partly drawn) [pd63] ([NMeAbu][ξGln(SO2Me)][NMeL][NMePhe(3-Cl)]L[NMeF][NMeL]T[NBuGly][NMeV]D-Piperidide; lactam N-11), for which the Papp was < 1 nm/s. The molecule `CCCCN1CC(=O)N(C)[C@@H](CC(C)C)C(=O)N[C@H](C(=O)N2CCCCC2)CC(=O)N(C)[C@@H](CC(C)C)C(=O)N[C@@H](CC(C)C)C(=O)N(C)[C@@H](CC)C(=O)N(C)[C@@H](Cc2ccccc2)C(=O)NC(CCC(=O)NS(C)(=O)=O)C(=O)N(C)[C@@H](Cc2cccc(Cl)c2)C(=O)N(C)[C@@H](CC(C)C)C(=O)N[C@@H]([C@@H](C)O)C1=O` (stereo partly drawn) [pd64] ([NMeL]L[NMeAbu][NMeF][ξGln(SO2Me)][NMePhe(3-Cl)][NMeL]T[NBuGly][NMeL]D-Piperidide; lactam N-11) returned a Papp of 1.5 nm/s.

Molecule `CCCCN1CC(=O)N(C)[C@@H](Cc2ccccc2)C(=O)NC(CCC(=O)NS(C)(=O)=O)C(=O)N(C)[C@@H](CC(C)C)C(=O)N[C@@H]([C@@H](C)O)C(=O)N(CCCC)CC(=O)N(C)[C@@H](Cc2ccccc2)C(=O)N(C)[C@@H](CC(C)C)C(=O)N[C@@H](CC(C)C)C(=O)N(C)[C@@H](CC(C)C)C(=O)N[C@H](C(=O)N2CCCCC2)CC1=O` (stereo partly drawn) [pd65] ([NBuGly][NMeF][ξGln(SO2Me)][NMeL]T[NBuGly][NMeF][NMeL]L[NMeL]D-Piperidide; lactam N-11) came in with a Papp of 0.6 nm/s. The same measure, in the same setting: the same measure for `CCCCN1CC(=O)N(C)[C@@H](Cc2cccc(Cl)c2)C(=O)N[C@@H](CCC(=O)NS(C)(=O)=O)C(=O)N(C)[C@@H](CC(C)C)C(=O)N[C@@H]([C@@H](C)O)C(=O)N(CCCC)CC(=O)N(C)[C@@H](Cc2ccccc2)C(=O)N(C)[C@@H](CC(C)C)C(=O)N[C@@H](CC(C)C)C(=O)N(C)[C@@H](CC(C)C)C(=O)N[C@H](C(=O)N2CCCCC2)CC1=O` [pd66] ([NBuGly][NMePhe(3-Cl)][Glu(NHSO2Me)][NMeL]T[NBuGly][NMeF][NMeL]L[NMeL]D-Piperidide; lactam N-11): 0.9 nm/s; for `CCCCN1CC(=O)N(C)[C@@H](CC(C)C)C(=O)N[C@@H](COC(C)(C)C)C(=O)N(C)[C@@H](Cc2ccccc2)C(=O)N(C)[C@@H](C(C)C)C(=O)N[C@H](C(=O)N2CCCCC2)CC(=O)N[C@H](C(C)C)C(=O)N(C)[C@@H](Cc2ccccc2)C(=O)NC(CCC(=O)NS(C)(=O)=O)C(=O)N(C)[C@@H](CC(C)C)C(=O)N[C@@H](CC(C)C)C1=O` (stereo partly drawn) [pd67] ([dV][NMeF][ξGln(SO2Me)][NMeL]L[NBuGly][NMeL]S(tBu)[NMeF][NMeV]D-Piperidide; lactam N-11): 0.6 nm/s. Same read-out and setting: the same measure for `CC(C)C[C@@H]1NC(=O)[C@H](CC(C)C)C(C)C(=O)CCCN(C)C(=O)C[C@@H](C(=O)N2CCCCC2)NC(=O)[C@H](CC(C)C)N(C)C(=O)[C@H](CC(C)C)N(C)C(=O)[C@H](CC(C)C)NC(=O)[C@H](CC(C)C)N(C)C(=O)C(CCC(=O)NS(C)(=O)=O)NC(=O)[C@H](Cc2ccccc2)N(C)C(=O)[C@H](Cc2ccccc2)N(C)C1=O` (stereo partly drawn) [pd68] ([X17]L[NMeF][NMeF][ξGln(SO2Me)][NMeL]L[NMeL][NMeL]D-Piperidide; lactam N-10): 1 nm/s; for `CCCCN1CC(=O)N(C)[C@@H](C(C)C)C(=O)N[C@H](C(=O)N2CCCCC2)CC(=O)N(C)[C@@H](CC)C(=O)N[C@@H](CC(C)C)C(=O)N(C)[C@@H](CC(C)C)C(=O)N(C)[C@@H](Cc2ccccc2)C(=O)NC(CCC(=O)NS(C)(=O)=O)C(=O)N(C)[C@@H](Cc2ccccc2)C(=O)N(C)[C@@H](CC(C)C)C(=O)N[C@@H](CC(C)C)C1=O` (stereo partly drawn) [pd69] ([NMeAbu]L[NMeL][NMeF][ξGln(SO2Me)][NMeF][NMeL]L[NBuGly][NMeV]D-Piperidide; lactam N-11): < 1.4 nm/s; for `CCCCN1CC(=O)N(C)[C@@H](Cc2ccccc2)C(=O)NC(CCC(=O)NS(C)(=O)=O)C(=O)N(C)[C@@H](CC(C)C)C(=O)N[C@@H](CC(C)C)C(=O)N(C)CC(=O)N(C)[C@@H](Cc2ccccc2)C(=O)N(C)[C@@H](CC(C)C)C(=O)N[C@@H](CC(C)C)C(=O)N(C)[C@@H](CC(C)C)C(=O)N[C@H](C(=O)N2CCCCC2)CC1=O` (stereo partly drawn) [pd70] ([NBuGly][NMeF][ξGln(SO2Me)][NMeL]L[Sar][NMeF][NMeL]L[NMeL]D-Piperidide; lactam N-11): 1.7 nm/s.

The same series, now with this note: human, Caco-2, Caco-2 (cm/sec).
The molecule `CC(C)C[C@@H]1NC(=O)[C@H](CC(C)C)N(C)C(=O)[C@H](C)N(C)C(=O)[C@@H](C(C)C)NC(=O)C[C@@H](C(=O)N2CCCCC2)NC(=O)[C@H]([C@@H](C)O)NC(=O)[C@H](C)N(C)C(=O)CN(C)C(=O)[C@H](CC(C)C)N(C)C(=O)[C@H](Cc2c[nH]c3ccccc23)NC(=O)[C@H](Cc2ccccc2)N(C)C1=O` [pd100] ([dV][NMeA][NMeL]L[NMeF]W[NMeL][Sar][NMeA]TD-Piperidide; lactam N-11) returned a Papp of 1.1 nm/s.

Molecule `CC[C@H](C)[C@H]1C(=O)N[C@@H](Cc2c[nH]c3ccccc23)C(=O)N(C)CC(=O)N(C)[C@@H](C)C(=O)N[C@H](C(=O)N2CCCCC2)CC(=O)N(C)[C@@H](C)C(=O)N[C@@H](CC(C)C)C(=O)N(C)[C@@H](CC(C)C)C(=O)N(C)[C@@H](CC(C)C)C(=O)N[C@@H](C)C(=O)N(C)[C@@H](CC(C)C)C(=O)N1C` [pd101] ([NMeA]L[NMeL][NMeL]A[NMeL][NMeI]W[Sar][NMeA]D-Piperidide; lactam N-11) showed a Papp of 1.3 nm/s.

(Values after patent US20230096766A1, “AMINO ACID HAVING FUNCTIONAL GROUP CAPABLE OF INTERMOLECULAR HYDROGEN BONDING, PEPTIDE COMPOUND CONTAINING SAME AND METHOD FOR PRODUCTION THEREOF” (Chugai Seiyaku Kabushiki Kaisha, priority 2018, published 2023).)
